Laboratory results reported in US5736578A, “Ethylamido fluorenes and improved method of making same” (Bristol-Myers Squibb Company, priority 1996, dated 1998).
pIC50: −log10 of the molar value.

What was measured:
[1] = system: Cyclic AMP Accumulation in Intact Cells: Melatonin; test: Functional activity: cyclic AMP accumulation in intact cells (forskolin-stimulated); type: cell-based; details: 10 min, read-out: I.A. (Intrinsic Activity) = Emax (experimental compound)/Emax (melatonin)
Method: Measurement of Functional Activity
Cyclic AMP Accumulation in Intact Cells: Melatonin
The media was removed from cell flask and washed with Hank's salt solution or PBS, as appropriate. The cells were detached from flask. Enough media was added so that the concentration of cells is 4×10^5 /ml when counted with a hemocytometer. Dialyzed or heat inactivated fetal bovine serum (FBS) was used in the media when plating the cells. 1 ml of cell suspension was put into each well, then 2 mls of media. Cells were incubated overnight.
1. Stock solution: plain media (no serum or additives)+20 mM HEPES.
2. IBMX solution: media/HEPES+1 mM IBMX.
3. Assay solution: 90% stock solution+10% IBMX solution.
Each well gets 3 mls of assay solution for preincubation and 3 mls for the assay. Each test condition is done in triplicate.
a) Basal assay solution+DMSO
b) Forskolin stimulation: 10 μM final concentration.
All tests were done in triplicate at 37° C. Plates with cells were kept in a shallow 37° C. water bath throughout the reaction. Media was taken from the wells and 3 ml of preincubation media was added. After 10 min, that solution was removed and 3 mls of drug solution was added. After 10 min, the media was removed and reaction stopped with HCl. Samples set for at least an hour at room temperature. 1 ml from each dish was taken and put into a microfuge tube and spun to remove floating cells. After dilution to 1:100 for RIA, a radioimmuno-assay was done.

human ML1A = molecular target: T1, human ML1A (Homo sapiens, UniProt P48039); test: Melatonergic binding (2-[125I]-iodomelatonin displacement, NIH 3T3 cell membranes); details: human ML1A in NIH 3T3 membranes; 100 pM 2-[125I]-iodomelatonin; 37° C., 1 hour; read-out: Binding Affinity (IC50)
T1 construct: expressed in transfected cells; pcDNA3; membrane homogenates
T1 sequence (P48039 whole entry): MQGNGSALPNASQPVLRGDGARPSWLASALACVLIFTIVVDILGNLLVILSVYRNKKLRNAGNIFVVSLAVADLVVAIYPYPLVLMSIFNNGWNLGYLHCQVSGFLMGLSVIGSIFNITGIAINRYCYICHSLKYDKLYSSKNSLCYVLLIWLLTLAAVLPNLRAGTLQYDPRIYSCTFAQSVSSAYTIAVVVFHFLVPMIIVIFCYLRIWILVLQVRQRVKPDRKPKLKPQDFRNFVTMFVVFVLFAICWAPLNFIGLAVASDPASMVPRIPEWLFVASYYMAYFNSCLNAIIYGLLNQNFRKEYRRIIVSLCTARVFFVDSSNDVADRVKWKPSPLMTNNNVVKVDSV
Method: Measurement of Melatonergic Binding
(a) 50 mM Tris buffer containing 12.5 mM MgCl2 and 2 mM EDTA (pH 7.4 at 37° C.).
(b) Wash buffer: 20 mM Tris base containing 2 mM MgCl2 (pH 7.4 at room temperature).
(d) 2-[^125 I]-iodomelatonin (100 pM final concn.). Source: NEN
2.Membrane preparation. The receptor cDNA (human ML1A) was subcloned into pcDNA3 and introduced into NIH 3T3 cells using Lipofectamine. Transformed NIH 3T3 cells resistant to geneticin were isolated and single colonies expressing high levels of 2-[^125 I]-iodomelatonin binding were isolated and characterized. Cell pellets were frozen at -80° C. for further use. For preparing membrane homogenates, pellets are thawed on ice, and resuspended in TME buffer, Tris base, MgCl2, EDTA (pH 7.4 at 37° C.), supplemented with aprotinin, leupeptin, and phenylmethlysulfonylfluoride. The cells were then homogenized using a dounce homogenizer, and centrifuged. The resulting pellet was resuspended with a dounce homogenizer in TME and frozen. On the day of assay, the small aliquot was thawed on ice and resuspended in TME buffer.
3. Incubation: 37° C. for 1 hour. Reaction is terminated by filtration.
The procedure was based on that disclosed in: Reppert, S. M., Weaver, D. R., and Ebisawa, R. (1994), Neuron, 13, 1177-1185 (1994).

[2] = system: jet-lag related sleep disturbances; details: humans; in words; cited from earlier work
[3] = in words; cited from earlier work
circadian rhythms = details: rats; in words; cited from earlier work

Structure (SMILES)	pIC50 (human ML1A)	also measured
CCC(=O)NCCC1c2cc(OC)ccc2-c2ccc(OC)cc21 [Example 5, N-[2-(2,7-dimethoxyfluoren-9-yl)ethyl]propanamide]	> 8.00	Emax [1]: 114%
CCCC(=O)NCCC1c2ccccc2-c2ccc(OC)cc21 (centres unmarked) [Example 6, N-[2-(2-methoxyfluoren-9-yl)ethyl]butanamide]	> 7.00	–
COc1ccc2c(c1)C(CCNC(=O)C1CC1)c1cc(OC)ccc1-2 [Example 7, N-[2-(2,7-dimethoxyfluoren-9-yl)ethyl]cyclopropane carboxamide]	–	Emax [1]: 102%
COCC(=O)NCCC1c2cc(OC)ccc2-c2ccc(OC)cc21 [Example 9, N-[2-(2,7-dimethoxyfluoren-9-yl)ethyl]methoxyacetamide]	> 7.00	–
CCCC(=O)NCCC1c2cc(OC)ccc2-c2ccc(OC)cc21 [Example 10, N-[2-(2,7-dimethoxyfluoren-9-yl)ethyl]butanamide]	–	Emax [1]: 115%
C=CC(=O)NCCC1c2ccccc2-c2ccc(OC)cc21 (centres unmarked) [Example 11, N-[2-(2-methoxyfluoren-9-yl)ethyl]-2-propenamide]	> 7.00	–
COc1ccc2c(c1)C(CCNC(=O)C1CCC1)c1cc(OC)ccc1-2 [Example 13, N-[2-(2,7-dimethoxyfluoren-9-yl)ethyl]cyclobutane carboxamide]	> 8.00	–
COc1ccc2c(c1)C(CCNC(=O)C(C)(C)C)c1cc(OC)ccc1-2 [Example 14, N-[2-(2,7-dimethoxyfluoren-9-yl)ethyl]-2,2-dimethyl propanamide]	> 6.30	–
COc1ccc2c(c1)C(CCCNC(C)=O)c1cc(OC)ccc1-2 [Example 20, N-[3-(2,7-dimethoxyfluoren-9-yl)prop-1-yl]acetamide]	> 7.00	–
CCOc1ccc2c(c1)C(CCNC(=O)CC)c1cc(OC)ccc1-2 (centres unmarked) [Example 29, N-[2-(2-ethoxy-7-methoxyfluoren-9-yl)-ethyl]propanamide]	> 7.00	–
COc1ccc2[nH]cc(CCNC(C)=O)c2c1 [melatonin, N-acetyl-5-methoxytryptamine]	–	treatment of jet-lag related sleep disturbances [2]: used to treat jet-lag related sleep disturbances; oral bioavailability [3]: often low and variable; effect of exogenous administration on circadian rhythms (circadian rhythms): synchronize circadian rhythms in rats
